According to patent US20060229324A1, “Quinazolin-4-one derivatives” (priority 2002, published 2006):

What was measured:
[1] = system: RBL-2H3, a rat basophilic leukemia cell to express hematopoietic prostaglandin D synthase; experiment: Prostaglandin D2 production inhibition test using cells (A23187-induced, EIA); format: cell-based; conditions: RBL-2H3 cells, A23187 2.5 μM; for inhibition at 10 µM: Rattus norvegicus, RBL-2H3, Drug Concentration 10 μM, read-out: Inhibitory Ratio of Prostaglandin D2 (PGD2) Production (%); for Inhibitory Ratio of Prostaglandin D2 (PGD2) Production (%): Drug Concentration 10 μM
Description: RBL-2H3, a rat basophilic leukemia cell to express hematopoietic prostaglandin D synthase, was inoculated in a 24 well plate and incubated overnight. After replacement with a medium in the presence or absence of a test compound, preincubation was carried out at 37° C. for one hour. After washing of the cells with PBS(-), the medium was replaced with a Hepes buffer solution (pH7.4) in the presence or absence of the test compound, and incubation was continued at 37° C. for 15 minutes. Then, calcium ionophore (A23187) at a final concentration of 2.5 μM was added, and incubation was carried out at 37° C. for 15 minutes to induce the production of PGD2. The supernatant of the cells was collected, and the amount of PGD2 flowed out in the supernatant was measured by EIA kit by Cayman. The inhibitory ratio of the production of PGD2 by the test compound was calculated assuming the amount of PGD2 produced by A23187 in the absence of the test compound as being 100%.

[2] = molecular target: human hematopoietic prostaglandin D2 synthase (Homo sapiens, UniProt O60760); experiment: Inhibitory activity against spleen-type (hematopoietic) prostaglandin D2 synthase, [14C]PGH2 to PGD2, TLC; format: biochemical; conditions: for inhibition at 10 µM / inhibition at 30 µM: read-out: Inhibitory Ratio of Prostaglandin D2 (PGD2) Synthase (%)
Sequence of human hematopoietic prostaglandin D2 synthase (O60760 whole entry): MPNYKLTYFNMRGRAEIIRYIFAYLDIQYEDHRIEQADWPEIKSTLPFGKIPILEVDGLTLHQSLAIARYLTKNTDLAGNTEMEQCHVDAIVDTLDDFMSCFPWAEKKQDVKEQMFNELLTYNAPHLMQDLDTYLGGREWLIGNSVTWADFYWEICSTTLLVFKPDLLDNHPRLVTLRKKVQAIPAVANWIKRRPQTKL
Description: A buffer solution of 100 mM Tris (hydroxymethyl)aminomethane/HCl buffer (pH8.0) containing glutathione (0.1 mM) and human hematopoietic prostaglandin D2 synthase (adequate quantity) was preincubated at 25° C. for 5 minutes in the presence or absence of a test compound, and then 14C labeled prostaglandin H2 ([14C]PGH2) (10 μM) was added, and the buffer solution was further incubated at 25° C. for one minute. A mixture of ether, methanol, and citric acid was added to the reaction mixture, and the ether layer was developed on silica gel thin-layer chromatography (TLC) (eluent=ether: methanol: acetic acid=90:2:1), and the PGD2 produced was measured by exposure to an imaging plate. The enzyme inhibitory rates of test compounds were calculated assuming the amount of production of PGD2 without the test compound being 100%.

Row | SMILES | inhibition at 10 µM ([2]; Drug Concentration 10 μM) | inhibition at 30 µM ([2]; Drug Concentration 30 μM) | Inhibitory Ratio of Prostaglandin D2 (PGD2) Synthase (%) ([2]; Drug Concentration 10 μM) | Inhibitory Ratio of Prostaglandin D2 (PGD2) Synthase (%) ([2]; Drug Concentration 30 μM) | inhibition at 10 µM [1] | Inhibitory Ratio of Prostaglandin D2 (PGD2) Production (%) [1]
1 | Cc1nn(-c2ccc([N+](=O)[O-])cc2)c(O)c1C=Nn1c(C)nc2ccccc2c1=O [Compound 20, 3-{[3-methyl-1-(4-nitrophenyl)-5-hydroxypyrazol-4-yl]-methylidene}amino-2-methyl-3,4-dihydroquinazolin-4-one] | 37% | 83% |  |  | 15% | 
2 | Cc1nn(-c2ccccc2)c(O)c1C=NN1C(=O)c2ccccc2NC1CO (centres unmarked) [Compound 39, 3-[(5-hydroxy-3-methyl-1-phenylpyrazol-4-yl)methylidene]-amino-2-hydroxymethyl-1,2,3,4-tetrahydroquinazolin-4-one] |  |  | 77% | 46% |  | 70%

Second part, led by results:

Row | inhibition at 10 µM ([2]; Drug Concentration 10 μM) | inhibition at 30 µM ([2]; Drug Concentration 30 μM) | Inhibitory Ratio of Prostaglandin D2 (PGD2) Synthase (%) ([2]; Drug Concentration 10 μM) | Inhibitory Ratio of Prostaglandin D2 (PGD2) Synthase (%) ([2]; Drug Concentration 30 μM) | SMILES | inhibition at 10 µM [1] | Inhibitory Ratio of Prostaglandin D2 (PGD2) Production (%) [1]
3 | 13% |  |  |  | CCOc1c(/C=N/n2c(C)nc3ccccc3c2=O)c(C)nn1-c1ccccc1 [Compound 3, 3-[(5-ethoxy-3-methyl-1-phenylpyrazol-4-yl)methylidene]amino-2-methyl-3,4-dihydroquinazolin-4-one] | 21% | 
4 | 96% | 105% |  |  | Cc1nc2ccccc2c(=O)n1/N=C/c1c(C(F)(F)F)nn(-c2ccccc2)c1O [Compound 7, 3-[(5-hydroxy-1-phenyl-3-(trifluoromethyl)pyrazol-4-yl)-methylidene]amino-2-methyl-3,4-dihydroquinazolin-4-one] | 50% | 
5 |  |  | 51% | 71% | COc1ccc(-c2nc3ccccc3c(=O)n2N=Cc2c(C)nn(-c3ccccc3)c2O)cc1 [Compound 30, 3-[(5-hydroxy-3-methyl-1-phenylpyrazol-4-yl)methylidene]-amino-2-(4-methoxyphenyl)-3,4-dihydroquinazolin-4-one] |  | 28%
